Data on 23 molecules can be found in US8674113B2, “Compounds” (Boehringer Ingelheim International GmbH, priority 2010, dated 2014).

Experiment [1] concerns the target mPGES-1 in A549 cells (Homo sapiens (Human), UniProt O14684). Put plainly: A549 cell-based assay (PGE2 formation, 50% human serum). The method, then:
Although the enzymatic assay is a high throughput assay the disadvantage is that it uses a recombinant protein which is not in its natural environment. Accordingly a cellular assay was established in which a cell line of human origin (A549) expressing the mPGES-1 protein was used. In addition in order to mimic the situation in humans in which compounds can be bound to plasma proteins 50% human serum is added in the assay.
A549 cells (ATCC: CCL-185) are grown to about 90% confluence in F-12K Nutrient Mixture (Kaighn's Mod. Gibco) containing 10% FBS in a humified incubator at 37° C. and 5% CO2. Cells were detached using Trypsin-EDTA. A549 cells were seeded in a 384-well collagene plate at a density of 7000 cells/well (50 μl) in F-12 medium containing 1% Penicillin-Streptomycin and 50% human serum. The cells were allowed to attach for 3-4 h. After that the cells were incubated for 20-24 h in F-12k medium supplemented with 50% human serum, 1% Penicillin-Streptomycin and containing IL-1β at a final concentration of 5 ng/ml as well as 10 nM arachidonic acid in the presence of a vehicle or a test compound. The total volume is 100 μl.
Concentrations of PGE2 in the cell free medium (10 μl) were measured using a commercially available HTRF kit from Cisbio (as described above). The PGE2 formation in the absence of test compound was taken as 100%.
IC50 values were derived from at 6-8 point titrations using conventional software.

Experiment [2] concerns the target recombinant human mPGES-1 (Homo sapiens (Human), UniProt O14684). As to the kind of experiment: mPGES-1 enzyme assay (HTRF detection of PGE2). It is filed as biochemical. The method, then: Microsomes from Rosetta E. coli bacteria expressing recombinant human mPGES-1 can be derived as described below:
Inoculate 5 ml LB with Ampicilin (50 μg/ml) and Chloramphenicol (34 μg/ml) with bacteria from freeze culture. Incubate 8 h at 37° C. with 200 rpm. Thereafter, inoculate 500-1000 ml LB containing Amp and Chloro with the 5 ml on culture and grow to OD640 of 0.8-1.0. Chill the culture to +4° C. before induction. Induce the culture with IPTG at a final concentration of 400 μM. Express the protein at room temp 18-23° C. with 200 rpm shaking over night.
The following steps can be performed on the following day: • 1. Spin down the cells in 250 ml centrifuge flasks for 15 min at 7000 rpm (Beckmann Coulte Avanti J-E centrifuge) • 2. Dissolve the pellet from 250 ml culture in 12.5 ml homogenization buffer • 3. (15 mM Tris-HCL pH8, 1 mM EDTA pH8, […], 2.5 mM GSH, 1 Tablet Protease inhibitor per 50 ml buffer) • 4. Disintegrate the cells by sonication, 5×10 seconds at 48% amplitude of a 750 W sonifier • 5. Add 2.5 ml MgCl2 (100 mM) and DNase 12.5 μl (0.8 mg/ml) and incubate on ice for 30 min • 6. Spin down the bacteria debris and save the supernatant, 7000 rpm for 15 min • 7. Isolate the protein containing membranes in the supernatant by ultracentrifugation 120000×g for 2 hour at 4° C. (Sorvall T880 rotor). • 8. Discard the supernatant and dissolve the pellet in 20 mM Potassium phosphate buffer pH7.4 (KH2PO4 and K2HPO4) buffer by sonication (5×10 s, 30% of a 50 W sonifier) and aliquot the enzyme and store aliquots at −80° C.
Before each experiment is performed an aliquot of the enzyme is thawed and it can then be dissolved in 0.1 M Potassium phosphate buffer pH7.4 (KH2PO4 and K2HPO4) buffer containing 2.5 mM GSH.
The aim of this assay is to determine the affinity of a test compound for the mPGES-1 enzyme.
47 μl of recombinant human mPGES-1 (˜0.5 μg protein/well) containing microsomal suspension in a buffer containing GSH, (2.5 mmol/L L-Glutathione reduced, dissolved in 0.1 mol/L Phosphat Buffer pH 7.4) is dispensed in a 384-well plate and thereafter 1 μl of the test compound(s) is/are added and incubated for 25 minutes at room temperature. The enzyme reaction is started by the addition of 2 ul PGH2 (final conc 2 μM) disolved in water-free Diglyme. After 60 seconds the reaction is terminated by addition of a stop solution containing FeCl2 (10 μL 0.074 mol/l FeCl2). The samples are diluted between 1:25 in PBS (Phosphate Buffered Saline). 10 μl of the diluted samples are transferred to 384-well low volume plate. In order to quantify the amount of PGE2 that has been formed, a homogenous time resolved fluorescent (HTRF) detecting of PGE2 has been performed using a commercially available kit from Cisbio according to the manufactures recommendation. This HTRF-based assay has been described in detail (see: Goedken et al., J Biomol Screen, 2008, 13(7), 619-625). Briefly, the diluted samples are mixed with 5 μl PGE2-d2 conjugate and 5 μl anti-PGE2 cryptate conjugate. After an incubation period of the plates over night, the fluorescence is measured by the use of an appropriate microplate reader.
The fluorescence of Europium cryptate (maxex=307 nm, maxem=620 nm) and d2-PGE2 (maxex=620 nm, maxem=665 nm) are measured.
The extent of the specific HTRF is measured as a ratio of the emission intensity at 665 nm vs. that at 620 nm at an excitation puts of 320 nm. The quantification plate contains also wells with different concentrations of PGE2 as calibration curve for the calculation of the PGE2 concentrations from the HTRF ratio values.
From all mPGES enzyme assay the background is subtracted and the IC50 is calculated over a nonlinear regression with conventional software.
For orientation: In TR-FRET formats the signal depends on donor and acceptor labels being close together.

Where [3] appears, read: IL-1β 5 ng/ml, 10 nM arachidonic acid, 20-24 h, read-out: mPGES-1 inhibitory effect IC50 in the cell assay.
The mark [4] stands for this setting: recombinant human mPGES-1 microsomes, PGH2 2 μM, 60 seconds, read-out: mPGES-1 inhibitory effect IC50 in the enzyme assay.
[5] abbreviates: Table C comparison of selected benzimidazoles, read-out: Cell IC50.
Setting [6] is: Table C comparison of selected benzimidazoles, read-out: Enzym IC50.

Molecules are shown by their SMILES. Read-outs that look alike come from different tables or passages of the source.

Chain of recombinant human mPGES-1 (O14684 whole entry): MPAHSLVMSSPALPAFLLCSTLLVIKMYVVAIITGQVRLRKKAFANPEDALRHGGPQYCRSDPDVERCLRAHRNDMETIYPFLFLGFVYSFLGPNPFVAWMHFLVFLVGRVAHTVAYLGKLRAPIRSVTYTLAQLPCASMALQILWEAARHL
Chain of mPGES-1 in A549 cells (O14684 whole entry): as above

For the molecule `Cn1c(Nc2c(Cl)ccc(CNC(=O)C(C)(C)C(F)(F)F)c2Cl)nc2cc(C(=O)Nc3ccc(F)c(Cl)c3)c(N3CC[C@@H](F)C3)cc21` [Example 236], the half-maximal inhibitory concentration (IC50) came to 2 nM in experiment [1] (setting [3]) and 3.3 nM in experiment [2] (setting [4]).

Turning to `Cn1c(Nc2c(Cl)ccc(CNC(=O)C(C)(C)F)c2Cl)nc2cc(C(=O)Nc3ccc(F)c(Cl)c3)c(N3CCC(F)(F)C3)cc21` [Example 154], the concentration for half-maximal inhibition (IC50) in experiment [1] (setting [3]) is less than 1 nM; in experiment [2] (setting [4]) it was 2 nM.

As for `Cn1c(Nc2c(Cl)ccc(CNC(=O)C(C)(C)C)c2Cl)nc2cc(C(=O)NCCC(F)(F)F)c(N3CCCC(C(F)(F)F)C3)cc21` (stereo not shown) [Example 81, N-(3,3,3-Trifluoropropyl)-2-{2,6-dichloro-3-[(2,2-dimethyl-propionylamino)-methyl]-phenylamino}-6-[3-trifluoromethyl-piperidinyl]-1-methyl-1H-benzimidazole-5-carboxylic acid amide], the 50% inhibitory concentration (IC50) in experiment [1] (setting [3]) was less than 1 nM; in experiment [2] (setting [4]) it was 4 nM.

`CN(CC(F)F)c1cc2c(cc1C(=O)Nc1ccc(OC(F)(F)F)cc1)nc(Nc1c(Cl)ccc(CNC(=O)C(C)(C)C)c1Cl)n2C` [Example 137]: the results for the 50% inhibitory concentration (IC50) in experiment [1] (setting [3]) and in experiment [2] (setting [4]) were less than 1 nM and 3 nM, respectively.

On to `Cn1c(Nc2c(Cl)ccc(CNC(=O)C(C)(C)F)c2Cl)nc2cc(C(=O)N[C@H]3CC[C@H](C(F)(F)F)CC3)c(N3CC[C@@H](F)C3)cc21` [Example 120], for which the 50% inhibitory concentration (IC50) in experiment [1] (setting [3]) is 1 nM; in experiment [2] (setting [4]), 3 nM.

`Cn1c(Nc2c(Cl)ccc(CNC(=O)C(C)(C)F)c2Cl)nc2cc(C(=O)NCCC(F)(F)F)c(N3CCC(C(F)(F)F)CC3)cc21` [Example 260]: the 50% inhibitory concentration (IC50) was 2 nM in experiment [1] (setting [3]) and 4 nM in experiment [2] (setting [4]).

Regarding `Cn1c(Nc2c(Cl)ccc(CNC(=O)C(C)(C)C)c2Cl)nc2cc(C(=O)NCC(F)(F)C(F)(F)F)c(N3CCC(F)(F)CC3)cc21` [Example 70], the IC50 in experiment [1] (setting [3]) and in experiment [2] (setting [4]) was 2 nM throughout.

In the case of `COC(C)CN(C)c1cc2c(cc1C(=O)N[C@H]1CC[C@H](C(F)(F)F)CC1)nc(Nc1c(Cl)ccc(CNC(=O)C(C)(C)C)c1Cl)n2C` (stereo partly shown) [Example 104], the IC50 in experiment [1] (setting [3]) turned out to be 1 nM; in experiment [2] (setting [4]), 2 nM.

For the molecule `Cn1c(Nc2c(Cl)ccc(CNC(=O)C(C)(C)C)c2Cl)nc2cc(C(=O)Nc3ccc(F)c(Cl)c3)c(NCC(F)F)cc21` [Example 17], the IC50 was 6 nM in experiment [1] (setting [3]), 6 nM in experiment [1] (setting [5]), 3 nM in experiment [2] (setting [6]) and 3 nM in experiment [2] (setting [4]).

With `Cn1c(Nc2c(Cl)ccc(CNC(=O)C(C)(C)C)c2Cl)nc2cc(C(=O)Nc3ccc(F)c(Cl)c3)c(N3CCC(F)CC3)cc21` [Example 1, N-(4-Fluoro-3-chloro-phenyl)-2-{2,6-dichloro-3-[(2,2-dimethyl-propionylamino)-methyl]-phenylamino}-6-(4-fluoro-piperidinyl)-1-methyl-1H-benzimidazole-5-carboxylic acid amide], the concentration for half-maximal inhibition (IC50) in experiment [1] (setting [3]) is 1 nM; in experiment [2] (setting [4]), 2 nM.

For the molecule `Cn1c(Nc2c(Cl)ccc(CNC(=O)[C@](C)(O)C(F)(F)F)c2Cl)nc2cc(C(=O)N[C@H]3CC[C@H](C(F)(F)F)CC3)c(N3CCC(C(F)(F)F)CC3)cc21` [Example 252], the concentration for half-maximal inhibition (IC50) in experiment [1] (setting [3]) was found to be 1.4 nM; in experiment [2] (setting [4]), 2.9 nM.

In the case of `Cn1c(Nc2c(Cl)ccc(CNC(=O)C(C)(C)C)c2Cl)nc2cc(C(=O)Nc3ccc(OC(F)(F)F)cc3)c(N3CCC(C(F)(F)F)CC3)cc21` [Example 57], the 50% inhibitory concentration (IC50) in experiment [1] (setting [3]) and in experiment [2] (setting [4]) was 1 nM throughout.

Turning to `Cn1c(Nc2c(Cl)ccc(CNC(=O)C(C)(C)C)c2Cl)nc2cc(C(=O)Nc3ccc(Cl)c(F)c3)c(N3CC4CC4C3)cc21` (stereo not shown) [Example 66], the IC50 is 1.6 nM in experiment [1] (setting [3]) and 3 nM in experiment [2] (setting [4]).

For `Cn1c(Nc2cc(CNC(=O)C(C)(C)C)ccc2Cl)nc2cc(C(=O)NCC3CC3)c(OCC(F)F)cc21` [[drawing 52] of WO 2010/100249, reference compound], the figures for the concentration for half-maximal inhibition (IC50) in experiment [1] (setting [5]) and in experiment [2] (setting [6]) were more than 200 nM and 2 nM, respectively.

For the molecule `Cn1c(Nc2c(Cl)ccc(CNC(=O)C(C)(C)C)c2Cl)nc2cc(C(=O)NCCC(F)(F)F)c(N3CCC(C(F)(F)F)CC3)cc21` [Example 62], the 50% inhibitory concentration (IC50) is less than 1 nM in experiment [1] (setting [3]) and 2 nM in experiment [2] (setting [4]).

In the case of `C#CCN(C)c1cc2c(cc1C(=O)N[C@H]1CC[C@H](C(F)(F)F)CC1)nc(Nc1c(Cl)ccc(CNC(=O)C(C)(C)C)c1Cl)n2C` [Example 103, N-(trans-4-Trifluoromethyl-cyclohexyl)-2-{2,6-dichloro-3-[(2,2-dimethyl-propionylamino)-methyl]-phenylamino}-6-[N-methyl-N-propargylamino]-1-methyl-1H-benzimidazole-5-carboxylic acid amide], the IC50 in experiment [1] (setting [3]) is less than 1 nM; in experiment [2] (setting [4]), 1 nM.

As for `Cn1c(Nc2c(Cl)ccc(CNC(=O)c3nccs3)c2Cl)nc2cc(C(=O)NCCC(F)(F)F)c(N3CCC(C(F)(F)F)CC3)cc21` [Example 182], the IC50 in experiment [1] (setting [3]) was found to be 7 nM; in experiment [2] (setting [4]), 2 nM.

As to `Cn1c(Nc2c(Cl)ccc(CNC(=O)C(C)(C)C)c2Cl)nc2cc(C(=O)Nc3cc(C(C)(C)C)on3)c(N3CCC(C(F)(F)F)CC3)cc21` [Example 159], the IC50 amounted to 4 nM in experiment [1] (setting [3]) and 3 nM in experiment [2] (setting [4]).

For `CN(Cc1nccn1C)c1cc2c(cc1C(=O)N[C@H]1CC[C@H](C(F)(F)F)CC1)nc(Nc1c(Cl)ccc(CNC(=O)C(C)(C)C)c1Cl)n2C` [Example 88], the half-maximal inhibitory concentration (IC50) in experiment [1] (setting [3]) was 1.5 nM; in experiment [2] (setting [4]), 2 nM.

Turning to `Cn1c(Nc2c(Cl)ccc(CNC(=O)C(C)(C)C)c2Cl)nc2cc(C(=O)N[C@H]3CC[C@H](C(F)(F)F)CC3)c(N3CC4(CCC4)C3)cc21` [Example 94], the 50% inhibitory concentration (IC50) in experiment [1] (setting [3]) was found to be 6 nM; in experiment [2] (setting [4]) it was 4 nM.

Take `Cn1c(Nc2c(Cl)ccc(CNC(=O)C(C)(C)C(F)(F)F)c2Cl)nc2cc(C(=O)Nc3ccc(OC(F)(F)F)cc3)c(N3CCC(C(F)(F)F)CC3)cc21` [Example 238]: the values for the half-maximal inhibitory concentration (IC50) in experiment [1] (setting [3]) and in experiment [2] (setting [4]) were 2 nM and 2.2 nM, respectively.

Turning to `Cn1c(Nc2c(Cl)ccc(CNC(=O)C(C)(C)C)c2Cl)nc2cc(C(=O)N[C@H]3CC[C@H](C(F)(F)F)CC3)c(N3CC4CCC3C4)cc21` (stereo partly shown) [Example 127], the IC50 in experiment [2] (setting [4]) is 2 nM.

For the molecule `CC(C)(O)Cn1c(Nc2c(Cl)ccc(CNC(=O)C(C)(C)C)c2Cl)nc2cc(C(=O)N[C@H]3CC[C@H](C(F)(F)F)CC3)c(N3CCOCC3)cc21` [Example 168], in experiment [2] (setting [4]), the 50% inhibitory concentration (IC50) was 3 nM.

As usually defined, the IC50 is the concentration that inhibits the measured activity by half.
